Assay results: patent US11091429B2, “Organic compounds” (Givaudan SA, priority 2012, dated 2021)

Columns and labels:
Test on Heineken beer = conditions: 0.5 ppm, 4% alcohol
Protocol: In Heineken beer (Market Product) containing 4% alcohol C18:2-gaba was added at 0.5 ppm
Samples were evaluated by expert tasters. Tasters were asked to describe the samples focusing on authentic taste, alcohol impact, malt taste, hop taste, mouthfeel, fullness, salivation, sweetness, bitterness, richness, long lastingness and fattiness.
(§1) Samples were evaluated by expert tasters. Tasters were asked to describe the samples focusing on authentic taste, mouthfeel, fullness, salty-ness, salivation, umami, sweetness, juiciness, richness, long lastingness and fattiness.
Base: Heineken beer (containing 4% alcohol)

[1] = Tasting in vanilla flavoured milk 3.0% fat; conditions: 2 ppm, 4% sugar, vanillin 10 ppm, vanilla extract 0.03%
Protocol: Vanilla Flavoured Milk 3.0% Fat
In a 3% fat milk drink, sweetened with 4% sucrose by weight, flavoured with Vaniline @ 10 ppm and a Vanilla extract @ 0.03% C18:2-gaba, C18:1-ACOA and C18:1-glu were added at 0.5 or 2 ppm.
(§2) Samples were evaluated by expert tasters. Tasters were asked to describe the samples focusing on authentic taste, mouthfeel, fullness, salivation, sweetness, juiciness, richness, long lastingness and fattiness.
Base: Milk 3% fat, 4% sugar, vanillin 10 ppm, vanilla extract 0.03%

[2] = Tasting on air expanded base; conditions: 3% fat, cheese seasoning
Protocol: (§3) The following formulations were prepared and tasted by trained panelists.
An air expanded base (Rice, wheat, Tapioca, potato, salt, sugar, modified starch), containing 3% fat and flavored with cheese seasoning containing salt, MSG, dairy, organic acids, sugars and flavor. The following compounds were added to the base at the indicated levels and the tasting results are reported: […]

[3] = Tasting in mango juice drink, 1% clear mango juice; conditions: 8% sucrose, 0.1% citric acid, mango flavour 0.05%
Protocol: Comparison in a Mango Juice Drink
Base is 8% sucrose, 0.1% citric acid, 1% clear mango juice, and a proprietary mango flavour at 0.05%.
as §1
Base is water, 8% sucrose, 0.1% citric acid, 1% clear mango juice, proprietary mango flavour @ 0.05%
(§4) Samples were evaluated by expert tasters. Tasters were asked to describe the samples focusing on authentic taste, mouthfeel, fullness, salivation, salty-ness, umami, sweetness, juiciness, richness, long lastingness and fattiness.
Base is water, 8% sucrose, 0.1% citric acid, 1% clear mango juice, proprietary mango flavour @0.05%
Samples were evaluated by expert tasters. Tasters were asked to describe the samples focusing on authentic taste, mouthfeel, fullness, salty-ness, salivation, umami, sweetness, juiciness, richness, long lastingness and fattiness
Base is 8% sucrose, 0.1% citric acid, 1% clear mango juice, proprietary mango flavour @ 0.05%
Samples were evaluated by expert tasters. Tasters were asked to describe the samples focusing on authentic taste, mouth feel, fullness, salivation, salty-ness, umami, sweetness, juiciness, richness, long lastingness and fattiness
Base is water, 8% sucrose, 0.1% citric acid, 1% clear mango juice, proprietary mango flavour @ 0.05%.
Test in a Mango Juice Drink

[4] = Tasting in chocolate milk
Protocol: Chocolate Milk with Different Fat Content […]
as §2

Tasting in fish sauce = assay: Tasting in fish sauce
Protocol: as §3
(§5) Salt level pure product between 5-40%
(§6) Salt level in application 0.3-1.0%
(§7) Samples were prepared and evaluated by expert tasters. Tasters were asked to describe the samples focusing on authentic taste, mouthfeel, fullness, salivation, salty-ness, umami, sweetness, juiciness, richness, long lastingness and fattiness.

[5] = Test on organic acids in a beverage; conditions: 1 ppm, water, 7% sucrose
Protocol: 14—Testing with Beverages Containing Organic Acids from 0.01% to 7%
Test 18:2 Gaba on Organic Acids in a Beverage.
In a solution containing water, 7% sucrose by weight, and different organic acids, 18:2 gaba was added at 1 ppm. We observed taste effects on the acid perception upon addition of 18:2 gaba.
Base is water, 7% Sucrose by weight, Tartaric acid at 0.121% by weight
Base is water, 7% Sucrose by weight, Malic acid at 0.1081% by weight
Base is water, 7% Sucrose by weight, Citric acid at 0.1% by weight
Base is water, 7% Sucrose by weight, Fumaric acid at 0.0936% by weight

Tasting in soy sauce = assay: Tasting in soy sauce
Protocol: as §3, §5, §6
(§8) Samples were prepared and evaluated by expert tasters. Tasters were asked to describe the samples focusing on authentic taste, mouthfeel, fullness, salty-ness, salivation, umami, sweetness, juiciness, richness, long lastingness and fattiness.
Test on Kikkoman Soy Sauce Low Salt
Base is Kikkoman soy sauce
as §7

[6] = Tasting in beef bouillon base; conditions: 0.5 PPM in beef bouillon base 1.0% salt, 0.5% fat
Protocol: as §3
Beef Bouillon base 1.0% salt, 0.5% fat

Tasting in pilaf = conditions: cooked rice with 10% of the butter flavoured at 1 ppm
Protocol: as §3

[7] = Test in peach flavoured drink; conditions: 1 ppm; water, 8% sugar, 0.1% citric acid, peach flavour 0.05%
Protocol: as §8
Test in Peach Flavoured Drink:
Base is water, 8% sugar, 0.1% citric acid, and proprietary peach flavour at 0.05%
as §1
Comparison in a Peach Drink
Base is water, 8% sugar, 0.1% citric acid, proprietary peach flavour at 0.05%
as §4

[8] = Tasting in spreadable cheese; conditions: 0.5 PPM in spreadable cheese (Eru)
Protocol: as §3, §8
Test on “Eru Prestige” Spreadable Cheese
Base is Eru prestige (market product)
as §7

Test in 3 in 1 coffee = conditions: 1 ppm, 3-in-1 coffee beverage, sucrose 13.2%, creamer (2.1% fat)
Protocol: In a 3 in 1 Coffee beverage from Nestle (market product) sweetened with sucrose 13.2% and containing creamer (2.1% fat) C18:2-gaba was added.
as §2
Base is 3-in-1 Coffee beverage (market product) sweetened with sucrose and containing creamer with fat

[9] = Test in chocolate flavoured drink; conditions: 2 ppm; water, 4% sucrose, chocolate flavour 0.03%
Protocol: as §8
Test in Chocolate Flavoured Drink:
Base: Water, 4% sucrose, proprietary chocolate flavor at 0.03%
as §1
Test in Chocolate Flavoured Drink Flavoured
Base: Water, 4% sucrose, proprietary chocolate flavour @ 0.03%

With `CCCCC/C=C\C/C=C\CCCCCCCC(=O)NCCCC(=O)O` [C18:2-gaba] the tasting result (Test on Heineken beer) was “more hoppy, more bitter, more malt and stronger alcohol impact”, the tasting result (Test on Heineken beer; listed as C18:2 gaba) was “more happy, more bitter, more malt and stronger alcohol impact” and the tasting result [1] was “beany, fatty, authentic, sweet”. For the same compound, the tasting result ([2]; 0.5 ppm on air expanded base) was “Increased dairy, cheese”, the tasting result ([2]; 1 ppm on air expanded base) was “Fatty full, cheesy, cheese crust, long lasting, cover base” and the tasting result ([3]; 1 ppm) was “fatty skin-like, very juicy, authentic mango, much more mouthfeel, long lasting mango taste, mouthfeel is close to the full juice product”. For the same compound, the tasting result ([3]; 2 ppm) was “fatty skin like, juicy, authentic”, the tasting result ([4]; 0.5 ppm, chocolate milk 1.8% fat) was “stronger cocoa note, more chocolate vs cocoa” and the tasting result ([4]; 0.5 ppm, chocolate milk 3% fat) was “very creamy, enhanced cocoa note”. The tasting result ([4]; 1 ppm, chocolate milk 1.8% fat) was “very creamy, chocolate, long-lasting creamy and chocolate taste”, the tasting result ([4]; 1 ppm, chocolate milk 3% fat) was “very creamy, lasting, sweet, almost taste like chocolate ice cream” and the tasting result (Tasting in fish sauce; 0.5 ppm in 1% diluted fish sauce (0.27% salt)) was “stronger in umami, longer lasting and richer”. For the same compound, the tasting result (Tasting in fish sauce; 0.5 ppm in pure fish sauce (27% salt)) was “strong in body and mouthfeel, more salty, richer with more rounded fish notes”, the tasting result ([5]; citric acid 0.1% by weight) was “decreased sharp acidic perception, full body mouth feel, higher higher mouthwatering, and an impression of the juicy notes of citrus fruit (orange, lemon)” and the tasting result ([5]; fumaric acid 0.0936% by weight) was “decreased sharp acidic perception, full body mouthfeel effects, higher sweet effects, and an impression of the full notes characteristic of sweet red & vanillic flavor types (vanilla, chocolate, raspberry, cherry, especially benzaldhyde)”. The tasting result ([5]; malic acid 0.1081% by weight) was “decreased sharp acidic perception, give fuller body, mouthfeel, higher mouthwatering, and an impression of the flesh and skin notes of fruit (apple)”, the tasting result ([5]; tartaric acid 0.121% by weight) was “decreased sharp acidic perception, full body mouthfeel, higher mouthwatering, more immediate (upfront hit), and an impression of the flesh of fruit (grape, apple, banana, pear-like)” and the tasting result (Tasting in soy sauce; 0.5 ppm in 1% diluted salt reduced kikoman soy sauce (9% salt)) was “stronger, more umami, long lasting, richer”. For the same compound, the tasting result (Tasting in soy sauce; 0.5 ppm in Kikkoman soy sauce low salt) was “much more salty, sweet and long lasting”, the tasting result (Tasting in soy sauce; 0.5 ppm in pure salt reduced kikoman soy sauce (9% salt)) was “strong in body and mouthfeel, and more salty” and the tasting result [6] was “Strong, Salty, Umami, mouthfeel”. For the same compound, the tasting result (Tasting in pilaf) was “more mouthfeel, with a lingering creamy authentic butter taste”, the tasting result [7] was “fruity peach, long lasting, juicy and fatty skin like very authentic” and the tasting result [8] was “full salty, much more cheese bite, umami, lingering, long lasting”. For the same compound, the tasting result ([8]; listed as C18:2 gaba) was “Full, Salty, cheese bite, more mature”, the tasting result (Test in 3 in 1 coffee) was “very nice mouthfeel effect, creamy as if coffee creamer is added, more sweet” and the tasting result [9] was “full, sweeter, more vanillic, milk chocolate is enhanced, very long lasting”.
